# Experimental data taken from US10004701B2, “Methods and compositions for treating infection” (UNIVERSITY OF ROCHESTER, priority 2012, dated 2018).
# Counter-ions that a name gives are not always drawn. Like-named read-outs stand apart in the source and are kept apart here.
# Key:
# Test in all cases: AK assay 384-well format, Prestwick library screening
# E. faecium = assay type: cell-based, Enterococcus faecium; details: 50 μM final drug concentration; for fold induction at 50 µM: Enterococcus faecium, 3 h
# [1] = test system: S. aureus strain USA300-0114; assay type: cell-based, Staphylococcus aureus; details: 50 μM final drug concentration; for fold induction at 50 µM: Staphylococcus aureus, USA300, 3 h
# K. pneumoniae = assay type: cell-based, Klebsiella pneumoniae; details: 50 μM final drug concentration; for fold induction at 50 µM: Klebsiella pneumoniae, 3 h
# [2] = test system: A. baumannii strain 98-37-09; assay type: cell-based, Acinetobacter baumannii; details: 50 μM final drug concentration; for fold induction at 50 µM: Acinetobacter baumannii, 983709, 3 h
# P. aeruginosa = assay type: cell-based, Pseudomonas aeruginosa; details: 50 μM final drug concentration; for fold induction at 50 µM: Pseudomonas aeruginosa, 3 h
# E. cloacae = assay type: cell-based, Enterobacter cloacae; details: 50 μM final drug concentration; for fold induction at 50 µM: Enterobacter cloacae, 3 h
# E. coli = assay type: cell-based, Escherichia coli; details: 50 μM final drug concentration; for fold induction at 50 µM: Escherichia coli, 3 h
# [3] = planktonic E. faecium, 384-well, cutoff for positive-scoring molecules 3-fold increase, read-out: AK-based Prestwick Library Screening Results: E. faecium (increase in extracellular AK activity)
# [4] = planktonic S. aureus, 384-well, cutoff for positive-scoring molecules 3-fold increase, read-out: AK-based Prestwick Library Screening Results: S. aureus (increase in extracellular AK activity)
# [5] = planktonic K. pneumoniae, 384-well, cutoff for positive-scoring molecules 3-fold increase, read-out: AK-based Prestwick Library Screening Results: K. pneumoniae (increase in extracellular AK activity)
# [6] = planktonic A. baumannii, 384-well, cutoff for positive-scoring molecules 3-fold increase, read-out: AK-based Prestwick Library Screening Results: A. baumannii (increase in extracellular AK activity)
# [7] = planktonic P. aeruginosa, 384-well, cutoff for positive-scoring molecules 3-fold increase, read-out: AK-based Prestwick Library Screening Results: P. aeruginosa (increase in extracellular AK activity)
# [8] = planktonic E. cloacae, 384-well, cutoff for positive-scoring molecules 3-fold increase, read-out: AK-based Prestwick Library Screening Results: E. cloacae (increase in extracellular AK activity)
# [9] = planktonic E. coli, 384-well, cutoff for positive-scoring molecules 3-fold increase, read-out: AK-based Prestwick Library Screening Results: E. coli (increase in extracellular AK activity)
# [10] = 384-well format, cutoff for positive-scoring molecules 3-fold increase, read-out: AK-based Prestwick Library Screening Results, E. faecium (increase in extracellular AK activity)
# [11] = 384-well format, cutoff for positive-scoring molecules 3-fold increase, read-out: AK-based Prestwick Library Screening Results, S. aureus (increase in extracellular AK activity)
# [12] = 384-well format, cutoff for positive-scoring molecules 3-fold increase, read-out: AK-based Prestwick Library Screening Results, K. pneumoniae (increase in extracellular AK activity)
# [13] = 384-well format, cutoff for positive-scoring molecules 3-fold increase, read-out: AK-based Prestwick Library Screening Results, A. baumannii (increase in extracellular AK activity)
# [14] = 384-well format, cutoff for positive-scoring molecules 3-fold increase, read-out: AK-based Prestwick Library Screening Results, P. aeruginosa (increase in extracellular AK activity)
# [15] = 384-well format, cutoff for positive-scoring molecules 3-fold increase, read-out: AK-based Prestwick Library Screening Results, E. cloacae (increase in extracellular AK activity)
# [16] = 384-well format, cutoff for positive-scoring molecules 3-fold increase, read-out: AK-based Prestwick Library Screening Results, E. coli (increase in extracellular AK activity)
compound,measurement,setting,value
Clc1ccc(COC(Cn2ccnc2)c2ccc(Cl)cc2Cl)cc1 (stereo not shown) [Econazole nitrate],fold induction at 50 µM,E. faecium; [3],1.5
same,fold induction at 50 µM,[1]; [4],3.7
same,fold induction at 50 µM,K. pneumoniae; [5],1.3
same,fold induction at 50 µM,[2]; [6],6.7
same,fold induction at 50 µM,P. aeruginosa; [7],1.3
same,fold induction at 50 µM,E. cloacae; [8],1.3
same,fold induction at 50 µM,E. coli; [9],1.3
CC(C)(O/N=C(\C(=O)N[C@@H]1C(=O)N2C(C(=O)[O-])=C(C[n+]3ccccc3)CS[C@H]12)c1csc(N)n1)C(=O)O [Ceftazidime pentahydrate],fold induction at 50 µM,"E. faecium; planktonic E. faecium, cutoff for positive-scoring molecules 3-fold increase, read-out: AK-based Prestwick Library Screening Results, E. faecium (increase in extracellular AK activity)",0.9
same,fold induction at 50 µM,"[1]; planktonic S. aureus, cutoff for positive-scoring molecules 3-fold increase, read-out: AK-based Prestwick Library Screening Results, S. aureus (increase in extracellular AK activity)",0.4
same,fold induction at 50 µM,"K. pneumoniae; planktonic K. pneumoniae, cutoff for positive-scoring molecules 3-fold increase, read-out: AK-based Prestwick Library Screening Results, K. pneumoniae (increase in extracellular AK activity)",3.2
same,fold induction at 50 µM,"[2]; planktonic A. baumannii, cutoff for positive-scoring molecules 3-fold increase, read-out: AK-based Prestwick Library Screening Results, A. baumannii (increase in extracellular AK activity)",0.5
same,fold induction at 50 µM,"P. aeruginosa; planktonic P. aeruginosa, cutoff for positive-scoring molecules 3-fold increase, read-out: AK-based Prestwick Library Screening Results, P. aeruginosa (increase in extracellular AK activity)",7.8
same,fold induction at 50 µM,"E. cloacae; planktonic E. cloacae, cutoff for positive-scoring molecules 3-fold increase, read-out: AK-based Prestwick Library Screening Results, E. cloacae (increase in extracellular AK activity)",12.9
same,fold induction at 50 µM,"E. coli; planktonic E. coli, cutoff for positive-scoring molecules 3-fold increase, read-out: AK-based Prestwick Library Screening Results, E. coli (increase in extracellular AK activity)",11.5
COCC(=O)Nc1c(I)c(C(=O)NCC(O)CO)c(I)c(C(=O)N(C)CC(O)CO)c1I (stereo not shown) [Iopromide],fold induction at 50 µM,"E. faecium; cutoff for positive-scoring molecules 3-fold increase, read-out: AK-based Prestwick Library Screening Results, E. faecium (fold increase in extracellular AK activity)",1
same,fold induction at 50 µM,"[1]; cutoff for positive-scoring molecules 3-fold increase, read-out: AK-based Prestwick Library Screening Results, S. aureus (fold increase in extracellular AK activity)",1.3
same,fold induction at 50 µM,"K. pneumoniae; cutoff for positive-scoring molecules 3-fold increase, read-out: AK-based Prestwick Library Screening Results, K. pneumoniae (fold increase in extracellular AK activity)",1.1
same,fold induction at 50 µM,"[2]; cutoff for positive-scoring molecules 3-fold increase, read-out: AK-based Prestwick Library Screening Results, A. baumannii (fold increase in extracellular AK activity)",1.1
same,fold induction at 50 µM,"P. aeruginosa; cutoff for positive-scoring molecules 3-fold increase, read-out: AK-based Prestwick Library Screening Results, P. aeruginosa (fold increase in extracellular AK activity)",1.2
same,fold induction at 50 µM,"E. cloacae; cutoff for positive-scoring molecules 3-fold increase, read-out: AK-based Prestwick Library Screening Results, E. cloacae (fold increase in extracellular AK activity)",1.4
same,fold induction at 50 µM,"E. coli; cutoff for positive-scoring molecules 3-fold increase, read-out: AK-based Prestwick Library Screening Results, E. coli (fold increase in extracellular AK activity)",1.2
COc1ccc(C(=O)NCc2cccnc2)cc1C(=O)NCc1cccnc1 [Picotamide monohydrate],fold induction at 50 µM,E. faecium; [10],0.9
same,fold induction at 50 µM,[1]; [11],0.7
same,fold induction at 50 µM,K. pneumoniae; [12],0.8
same,fold induction at 50 µM,[2]; [13],0.9
same,fold induction at 50 µM,P. aeruginosa; [14],0.8
same,fold induction at 50 µM,E. cloacae; [15],1.2
same,fold induction at 50 µM,E. coli; [16],0.9
Cc1c(Cl)cccc1Nc1ccccc1C(=O)O [Tolfenamic acid],fold induction at 50 µM,E. faecium; [3],1.1
same,fold induction at 50 µM,[1]; [4],0.5
same,fold induction at 50 µM,K. pneumoniae; [5],0.8
same,fold induction at 50 µM,[2]; [6],1.4
same,fold induction at 50 µM,P. aeruginosa; [7],1.2
same,fold induction at 50 µM,E. cloacae; [8],1.6
same,fold induction at 50 µM,E. coli; [9],1
CC1(C)O[C@@H]2C[C@H]3[C@@H]4CCC5=CC(=O)CC[C@]5(C)[C@@]4(F)[C@@H](O)C[C@]3(C)[C@]2(C(=O)CCl)O1 [Halcinonide],fold induction at 50 µM,"E. faecium; planktonic, cutoff for positive-scoring molecules 3-fold increase, read-out: AK-based Prestwick Library Screening Results, E. faecium (fold increase in extracellular AK activity)",0.9
same,fold induction at 50 µM,"[1]; planktonic, cutoff for positive-scoring molecules 3-fold increase, read-out: AK-based Prestwick Library Screening Results, S. aureus (fold increase in extracellular AK activity)",0.6
same,fold induction at 50 µM,"K. pneumoniae; planktonic, cutoff for positive-scoring molecules 3-fold increase, read-out: AK-based Prestwick Library Screening Results, K. pneumoniae (fold increase in extracellular AK activity)",0.5
same,fold induction at 50 µM,"[2]; planktonic, cutoff for positive-scoring molecules 3-fold increase, read-out: AK-based Prestwick Library Screening Results, A. baumannii (fold increase in extracellular AK activity)",0.7
same,fold induction at 50 µM,"P. aeruginosa; planktonic, cutoff for positive-scoring molecules 3-fold increase, read-out: AK-based Prestwick Library Screening Results, P. aeruginosa (fold increase in extracellular AK activity)",0.7
same,fold induction at 50 µM,"E. cloacae; planktonic, cutoff for positive-scoring molecules 3-fold increase, read-out: AK-based Prestwick Library Screening Results, E. cloacae (fold increase in extracellular AK activity)",0.8
same,fold induction at 50 µM,"E. coli; planktonic, cutoff for positive-scoring molecules 3-fold increase, read-out: AK-based Prestwick Library Screening Results, E. coli (fold increase in extracellular AK activity)",0.6
[H]/N=C(/N)NS(=O)(=O)c1ccc(N)cc1 [Sulfaguanidine],fold induction at 50 µM,E. faecium; [10],1
same,fold induction at 50 µM,[1]; [11],0.5
same,fold induction at 50 µM,K. pneumoniae; [12],0.6
same,fold induction at 50 µM,[2]; [13],0.5
same,fold induction at 50 µM,P. aeruginosa; [14],0.5
same,fold induction at 50 µM,E. cloacae; [15],0.4
same,fold induction at 50 µM,E. coli; [16],0.5
C1CCN2C[C@@H]3C[C@@H](CN4CCCC[C@@H]34)[C@H]2C1 [Sparteine (−)],"AK-based Prestwick Library Screening Results, E. faecium (fold increase in extracellular AK activity)","E. faecium; planktonic, […]",1.0
same,"AK-based Prestwick Library Screening Results, S. aureus (fold increase in extracellular AK activity)","[1]; planktonic, […]",1.1
same,"AK-based Prestwick Library Screening Results, K. pneumoniae (fold increase in extracellular AK activity)","K. pneumoniae; planktonic, […]",1.0
same,"AK-based Prestwick Library Screening Results, A. baumannii (fold increase in extracellular AK activity)","[2]; planktonic, […]",1.0
same,"AK-based Prestwick Library Screening Results, P. aeruginosa (fold increase in extracellular AK activity)","P. aeruginosa; planktonic, […]",1.0
same,"AK-based Prestwick Library Screening Results, E. cloacae (fold increase in extracellular AK activity)","E. cloacae; planktonic, […]",1.7
same,"AK-based Prestwick Library Screening Results, E. coli (fold increase in extracellular AK activity)","E. coli; planktonic, […]",1.3
CCCCN(CCCC)CCC(O)c1cc2c(Cl)cc(Cl)cc2c2cc(C(F)(F)F)ccc12 (stereo not shown) [Halofantrine hydrochloride],fold induction at 50 µM,"E. faecium; planktonic E. faecium, positive cutoff 3-fold increase, read-out: AK-based Prestwick library screening result, E. faecium (fold increase in extracellular AK activity)",1
same,fold induction at 50 µM,"[1]; planktonic S. aureus, positive cutoff 3-fold increase, read-out: AK-based Prestwick library screening result, S. aureus (fold increase in extracellular AK activity)",1.2
same,fold induction at 50 µM,"K. pneumoniae; planktonic K. pneumoniae, positive cutoff 3-fold increase, read-out: AK-based Prestwick library screening result, K. pneumoniae (fold increase in extracellular AK activity)",1.1
same,fold induction at 50 µM,"[2]; planktonic A. baumannii, positive cutoff 3-fold increase, read-out: AK-based Prestwick library screening result, A. baumannii (fold increase in extracellular AK activity)",1.3
same,fold induction at 50 µM,"P. aeruginosa; planktonic P. aeruginosa, positive cutoff 3-fold increase, read-out: AK-based Prestwick library screening result, P. aeruginosa (fold increase in extracellular AK activity)",1.1
same,fold induction at 50 µM,"E. cloacae; planktonic E. cloacae, positive cutoff 3-fold increase, read-out: AK-based Prestwick library screening result, E. cloacae (fold increase in extracellular AK activity)",1.3
same,fold induction at 50 µM,"E. coli; planktonic E. coli, positive cutoff 3-fold increase, read-out: AK-based Prestwick library screening result, E. coli (fold increase in extracellular AK activity)",1
CC[N+](CC)(CC)CCOc1cccc(OCC[N+](CC)(CC)CC)c1OCC[N+](CC)(CC)CC [Gallamine triethiodide],fold induction at 50 µM,E. faecium; [3],1
same,fold induction at 50 µM,[1]; [4],1.1
same,fold induction at 50 µM,K. pneumoniae; [5],1.1
same,fold induction at 50 µM,[2]; [6],1.2
same,fold induction at 50 µM,P. aeruginosa; [7],1
same,fold induction at 50 µM,E. cloacae; [8],1.5
same,fold induction at 50 µM,E. coli; [9],1.3
